Laboratory results taken from PubChem BioAssay (NCI).
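Method: 48-hour compound exposure of cells in 96-well plates, five concentrations, linear interpolation of endpoints. GI50 = concentration required for 50% inhibition of growth. The concentration for full growth arrest is given as TGI.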

Experiments:
Test in all cases: growth of human tumour cells (NCI), 48 h
[1] = tested on: SK-MEL-5 melanoma
[2] = tested on: MCF7 breast
[3] = tested on: SK-MEL-2 melanoma
[4] = tested on: BT-549 breast
[5] = tested on: HOP-92 NSCLC
[6] = tested on: M14 melanoma
[7] = tested on: NCI/ADR-RES ovarian
[8] = tested on: HCC-2998 colon
[9] = tested on: NCI-H522 lung
[10] = tested on: UACC-257 melanoma
[11] = tested on: MALME-3M melanoma
[12] = tested on: SF-295 CNS
[13] = tested on: SNB-75 CNS
[14] = tested on: MDA-MB-435
[15] = tested on: SR leukemia
[16] = tested on: SK-OV-3 ovarian
[17] = tested on: ACHN renal
[18] = tested on: RPMI-8226 leukemia
[19] = tested on: UO-31 renal
[20] = tested on: SW-620 colon
[21] = tested on: OVCAR-8 ovarian
[22] = tested on: TK-10 renal
[23] = tested on: CAKI-1 renal
[24] = tested on: EKVX NSCLC
[25] = tested on: SF-268 CNS
[26] = tested on: OVCAR-3 ovarian
[27] = tested on: K-562 leukemia
[28] = tested on: LOX IMVI melanoma
[29] = tested on: 786-0 renal
[30] = tested on: SK-MEL-28 melanoma
[31] = tested on: RXF 393 renal
[32] = tested on: T-47D breast
[33] = tested on: NCI-H460 lung
[34] = tested on: PC-3 prostate
[35] = tested on: HCT-15 colon
[36] = tested on: IGROV1 ovarian
[37] = tested on: NCI-H226 lung
[38] = tested on: A549 NSCLC
[39] = tested on: NCI-H23 lung
[40] = tested on: MOLT-4 leukemia
[41] = tested on: CCRF-CEM leukemia
[42] = tested on: DU-145 prostate
[43] = tested on: OVCAR-4 ovarian
[44] = tested on: COLO 205 colon
[45] = tested on: OVCAR-5 ovarian
[46] = tested on: U251 CNS
[47] = tested on: SF-539 CNS
[48] = tested on: MDA-MB-231 breast
[49] = tested on: SNB-19 CNS
[50] = tested on: KM12 colon
[51] = tested on: A498 renal
[52] = tested on: UACC-62 melanoma
[53] = tested on: HOP-62 NSCLC
[54] = tested on: HL-60(TB) leukemia
[55] = tested on: HS 578T breast
[56] = tested on: HCT-116 colon
[57] = tested on: HT29 colon
[58] = tested on: SN12C renal

## CCCCCCCCOc1ccc(/C=N/Nc2cc(C)nc3ccc(Cl)cc23)cc1
[1]
  GI50: 1.73 µM
  TGI: 3.16 µM
[2]
  GI50: 1.94 µM
  TGI: 3.91 µM
[3]
  GI50: 1.97 µM
  TGI: 3.59 µM
[4]
  GI50: 14.2 µM
  TGI: 31.4 µM
[5]
  GI50: 1.51 µM
  TGI: 3.02 µM
[6]
  GI50: 1.75 µM
  TGI: 3.51 µM
[7]
  GI50: 1.97 µM
  TGI: 4.07 µM
[8]
  GI50: 2.03 µM
  TGI: 3.59 µM
[9]
  GI50: 1.89 µM
  TGI: 3.86 µM
[10]
  GI50: 1.75 µM
  TGI: 4.03 µM
[11]
  GI50: 1.85 µM
  TGI: 3.36 µM
[12]
  GI50: 1.83 µM
  TGI: 3.45 µM
[13]
  GI50: 1.86 µM
  TGI: 3.49 µM
[14]
  GI50: 1.73 µM
  TGI: 3.16 µM
[15]
  GI50: 1.61 µM
  TGI: 7.12 µM
[16]
  GI50: 1.65 µM
  TGI: 3.1 µM
[17]
  GI50: 1.74 µM
  TGI: 3.13 µM
[18]
  GI50: 2.01 µM
  TGI: 4.63 µM
[19]
  GI50: 1.55 µM
  TGI: 2.93 µM
[20]
  GI50: 1.89 µM
  TGI: 3.63 µM
[21]
  GI50: 2.14 µM
  TGI: 4.84 µM
[22]
  GI50: 1.91 µM
  TGI: 3.33 µM
[23]
  GI50: 1.69 µM
  TGI: 3.11 µM
[24]
  GI50: 1.8 µM
  TGI: 3.33 µM
[25]
  GI50: 2.21 µM
  TGI: 4.18 µM
[26]
  GI50: 2.17 µM
  TGI: 3.82 µM
[27]
  GI50: 1.66 µM
  TGI: 4.24 µM
[28]
  GI50: 1.66 µM
  TGI: 3.17 µM
[29]
  GI50: 1.86 µM
  TGI: 3.66 µM
[30]
  GI50: 1.78 µM
  TGI: 3.2 µM
[31]
  GI50: 1.55 µM
  TGI: 2.94 µM
[32]
  GI50: 1.92 µM
  TGI: 4.09 µM
[33]
  GI50: 2.01 µM
  TGI: 3.87 µM
[34]
  GI50: 1.5 µM
  TGI: 3.04 µM
[35]
  GI50: 1.85 µM
  TGI: 3.38 µM
[36]
  GI50: 1.84 µM
  TGI: 3.67 µM
[37]
  GI50: 1.7 µM
  TGI: 3.62 µM
[38]
  GI50: 1.7 µM
  TGI: 3.52 µM
[39]
  GI50: 1.9 µM
  TGI: 3.84 µM
[40]
  GI50: 2.05 µM
  TGI: 4.93 µM
[41]
  GI50: 2.04 µM
  TGI: 5.28 µM
[42]
  GI50: 1.76 µM
  TGI: 3.32 µM
[43]
  GI50: 1.82 µM
  TGI: 3.55 µM
[44]
  GI50: 1.82 µM
  TGI: 3.56 µM
[45]
  GI50: 1.79 µM
  TGI: 3.2 µM
[46]
  GI50: 1.82 µM
  TGI: 3.39 µM
[47]
  GI50: 1.86 µM
  TGI: 3.29 µM
[48]
  GI50: 1.81 µM
  TGI: 3.47 µM
[49]
  GI50: 2 µM
  TGI: 3.83 µM
[50]
  GI50: 1.85 µM
  TGI: 3.44 µM
[51]
  GI50: 1.98 µM
  TGI: 3.45 µM
[52]
  GI50: 1.87 µM
  TGI: 3.49 µM
[53]
  GI50: 1.48 µM
  TGI: 3.09 µM
[54]
  GI50: 2 µM
  TGI: 4.46 µM
[55]
  GI50: 2.23 µM
  TGI: 4.51 µM
[56]
  GI50: 1.83 µM
  TGI: 3.81 µM
[57]
  GI50: 1.81 µM
  TGI: 3.34 µM
[58]
  GI50: 1.78 µM
  TGI: 3.35 µM
